For this assay, the system named is HCT116 tumor cells (colon tumor cells). Put plainly: HCT116 colon tumor model, anti-alpha5beta1 + chemotherapy. Type of assay: in vivo, HRLN female nu/nu mice. The settings on record: chemotherapeutic agent by itself. As for the experimental part:
HRLN female nu/nu mice were injected with 5×10^6 HCT116 tumor cells (colon tumor cells) subcutaneously in their flanks. Tumors were allowed to grow until they reach an average size of 80-120 cubic mm before treatment with therapies. Tumor bearing mice were then divided into 4 groups:
Tumor volume measurement was carried out twice a week using a standard caliper measurement method. The hamster anti-mouse integrin alpha5 mab, known as 10E7, was generated at Genentech. Body weight was measured 5 times over 2 days then twice per week (biwk) to the end of the study. The endpoint of the experiment was a tumor volume of 1.5 gms or 60 days, whichever came first. Some responders were followed longer. When the endpoint was reached, the animals were euthanized. The dosing volume was 10 mL/kg (0.200 ml/20 g mouse), which volume was adjusted for body weight. 10E7 was administered 30 minutes before irinotecan administration. For animals showing complete regression (CR), tissues at the site of tumor implantation were collected at endpoint and preserved in formulin followed by 70% EtOH for later study. All samples to be frozen were placed in a cryomold, wrapped in foil & snap frozen on liquid nitrogen.

Molecules are shown by their SMILES.

Consider `CCc1c2c(nc3ccc(OC(=O)N4CCC(N5CCCCC5)CC4)cc13)-c1cc3c(c(=O)n1C2)COC(=O)[C@]3(O)CC` [irinotecan], for which the vascular damage result is “did not cause significant vascular damage”.

Source of the values: patent US8350010B2, “Anti-alpha5/beta1 antibody” (Genentech, Inc., priority 2006, dated 2013).
